The text below walks through data of US20150374709A1, “TETRA-SUBSTITUTED NDGA DERIVATIVES VIA ETHER BONDS AND CARBAMATE BONDS AND THEIR SYNTHESIS AND PHARMACEUTICAL USE” (ERIMOS PHARMACEUTICALS LLC, priority 2006, published 2015).

Broadly, the IC50 is the concentration at which inhibition is half-maximal. The EC50 is the midpoint of the concentration-response curve.

Assay [1] concerns apoptosis of cells based on DNA fragmentation. In words: TiterTACS DNA fragmentation apoptosis assay. Type of assay: cell-based. The settings on record: TiterTACS apoptosis detection. The method, then: Antiproliferative activity is determined using the TiterTACS® Apoptosis Detection Kit (R&D Systems Inc., Minneapolis, Minn. USA) relating to apoptosis of cells based on DNA fragmentation, and by the ELISA VEGF ([…]) and survivin assays.
In the DNA fragmentation assay, in situ detection of apoptosis is specifically achieved with TiterTACS® 96-well Apoptosis Detection kit, Catalog No. TA600 (R&D Systems, Inc.). The TiterTACS® assay provides quantification of apoptosis in cultured cells without direct counting of labeled cells using colorimetric detection. Cells are treated with the test compounds, left untreated as experimental negative controls, or treated with TACS nuclease as positive controls. TACS nuclease allows positive controls to be generated for each experimental system: a brief treatment of cells with the TACS nuclease prior to labeling generates DNA breaks in every cell, providing an appropriate positive control specific for the system under study. The TdT enzyme that catalyzes the addition of dNTPs to DNA fragments allows for colorimetric detection of at 450 nm by using a streptavidin-HRP solution followed by the TACS-Sapphire substrate. A high absorbance at 450 nm is indicative of apoptosis in the cells. Treated cells are compared to untreated cells and to nuclease-cleaved cells to assess the extent of apoptosis.

In the next assay the test system is VEGF. The experiment in a line: ELISA VEGF assay (DFO-treated cells). Type of assay: cell-based, Human. From the text: ELISA (Enzyme-Linked ImmunoSorbent Assay) VEGF studies were done following manufacturer's instructions using the Endogen® Human VEGF ELISA kit, Catalog No. […] (Pierce Biotechnology, Inc., Rockford, Ill. USA). Hypoxic conditions are created for the cells by treating them with desferrioxamine (DFO), which chelates iron and causes the cells to secrete VEGF into the media. The supernatant (media) was removed and frozen for testing, and the cells were counted with the Trypan Blue assay so that the results can be normalized to cell count. The VEGF is measured with a sandwich ELISA that captures the protein in media on an antibody-coated microplate, and then uses a biotinylated antibody reagent to detect the protein. Results from a standard curve enable the user to quantify the amount of protein in each sample.
Background: An ELISA detects its analyte on a solid surface through an enzyme-linked reagent.

In the next assay the test system is MCP-1. In words: MCP-1 protein production in TNF-α-treated primary human keratinocytes. The assay is classed as cell-based. As for the experimental part: Anti-inflammatory activity was determined based on the effect of tested compounds on primary human keratinocytes (PHKs). PHKs play an important role in inflammatory processes, synthesizing a number of cytokines, adhesion molecules and growth factors. Studies were conducted to determine whether tested compounds could inhibit keratinocytes to prevent or reduce production of interferon gamma (IFN-γ), interleukin-8 (IL-8), tumor necrosis factor alpha (TNF-α), granulocyte/macrophage colony-stimulating factor (GM-CSF), intercellular adhesion molecule-1 (ICAM-1, also known as CD54) and monocyte chemotactic protein-1 (MCP-1). PHKs are first treated with TNF-α to induce a pro-inflammatory state and release of pro-inflammatory cytokines. Specific cytokines are then assayed following manufacturer's instructions using R&D Systems. Inc.'s protein assays (Quantikine ELISA kits; Catalog Nos. DCP00 for MCP-1 kit, DCM00 for GM-CSF kit, and DIF50 for IFN-γ).
Anti-inflammatory activity of several of the compounds of the previously described working examples was determined based on the effect of tested compounds on primary human keratinocytes (PHKs) as described above and following the manufacturer's instructions for the various kits used in the studies. While these studies more typically are used mostly for anti-inflammatory investigations, they can also apply to vascular diseases, since the results in keratinocytes may be extrapolated to vascular endothelium.
Only MCP-1 data with PHKs is dose-dependent, so an IC50 for MCP-1 can be calculated, but not for the other cytokines.

For assay [2], the system named is HeLa (cervical adenocarcinoma). In words: MTS cell viability assay, HeLa. Type of assay: cell-based. The settings on record: read-out: HeLa IC50. From the text:
(§1) Studies performed regarding cytotoxicity included the well-known MTS, Trypan Blue and MTT protocols. The MTS studies were done using the CellTiter 96®AQueous One Solution Cell Proliferation Assay (Promega Corporation, Madison, Wis. USA). Metabolically active, namely viable, cells turn MTS, a tetrazolium compound (3-(4,5-dimethylthiazol-2-yl)-5-(3-carboxymethoxyphenyl)-2-(4-sulfophenyl)-2H-tetrazolium, inner salt) into colored formazan, which is soluble in tissue culture medium. The measurement of the absorbance of the formazan is read at 490 nm. The ready to use reagent is added directly to the cells in media in 96-well plates, incubated 1-4 hours and the results are recorded by the plate reader. The IC50 is estimated by graphing the gathered data. The IC50 is the concentration of the tested material that inhibits 50% of growth or viability of the tested material compared to a control.
(§2) Three cell lines obtained from ATCC and maintained as directed by ATCC were tested: HeLa (cervical adenocarcinoma), A549 (lung carcinoma), and COS-7 (SV40 transformed monkey kidney). Studies of these cell lines are considered to be indicative of the effect of tested substances on mammalian, including human, diseases.
(§3) All compounds were dissolved in DMSO and DMSO is used as the placebo. The samples were first dissolved into 10 mM dilutions in DMSO and then diluted further to 5, 1, 0.5, 0.1, 0.05, and 0.01 mM solutions. These solutions were added to the media at a 1% concentration (1 μl to 100 μl media) to treat the cells with 100, 50, 10, 5, 1, 0.5, and 0.1 μM of the compound. […] Solutions were checked before use for precipitation, especially the 10 mM solutions. If there was precipitation, they were warmed 65° C. and added to warmed media.
(§4) Wells on a 96-well plate were seeded with 1.5-8×10^4 cells in 100 μl media and incubated overnight. The outside wells of the plate were filled with 200 μl sterile, deionized (DI) water to curb media evaporation. After 24 hours, test chemicals were prepared in media at a concentration of 1% media volume. The test sample media were added, mixing with pipette before adding 100 μl per well. Media was added to the “Media Only” wells. The well plate and its contents were incubated for 24-72 hours, depending on the study conducted. On the thy of the MTS assay, the MTS reagent was removed from the refrigerator and brought to room temperature. Using the multichannel pipette, 20 μl of the MTS reagent was added to each well and incubated for one to four hours. The plate was read at 490 nm with a reference wavelength of 690 nm after one hour in the incubator thereafter until the blank wells were at about 0.2 OD. The results were then scanned into a Microsoft® Excel® template designed to perform all necessary calculations whim data are entered. The data were checked for statistical errors; data points that are within 10% of the mean of the data points for that group were included. The average of the blanks (“Media Only”) were subtracted and the data were inserted into a chart that represents growth response, treated/untreated.
(In general: Formazan colour is commonly taken as a measure of viable cells.)

The test system of a further assay is A549 (lung carcinoma). The experiment in a line: MTS cell viability assay, A549. The assay is classed as cell-based. To be noted: Homo sapiens, A549, read-out: A549 IC50.
From the text: as §1, §2, §3, §4

For assay [3], the system named is TAT-mediated transactivation of HIV transcription (HIV-1 LTR promoter). In words: SEAP assay of TAT-mediated transactivation (antiviral activity). Type of assay: cell-based, human immunodeficiency virus (HIV). To be noted: Human immunodeficiency virus 1, COS-7, 48 h, read-out: SEAP EC50. As for the experimental part: Antiviral activity is determined using a SEAP (SEcreted Alkaline Phosphatase) assay, in which cells are co-transfected with SEAP and TAT plasmids. TAT is a transactivator, human immunodeficiency virus (HIV) gene expression and is one of the two or more necessary viral regulatory factors (TAT and REV) for HIV gene expression. TAT acts iv binding to the TAR RNA element and activating transcription from the long terminal repeat (LTR) promoter. […] Previous studies have shown that TAT mediates reduction of antibody-dependent T cell proliferation, contributing substantially to the failure of the immune response. TAT also directly stimulates Kaposi's cell growth.
Since TAT has no apparent cellular homologs, this strong positive regulator has become an attractive target for the development of anti-AIDS drugs. In contrast to currently available HIV reverse transcriptase inhibitors (AZT, DDI) or potential protease inhibitors that prevent new rounds of infection, an inhibitor which suppresses viral gene TAT regulated expression of integrated proviral DNA will arrest the virus at an early stage (Hsu et al., Science 254:1799-1802, 1991). Efforts aimed at the elucidation of factors which control gene expression at transcriptional and post-transcriptional levels in host eukaryotes have recently made possible quantitative assessment of TAT function (Sim, Ann. N.Y. Acad. Sci. 616: 64-70, 1990). To screen for inhibitors for TAT regulated transactivation (TAT-TRS), the SEAP reporter gene is put under the control of HIV-1 LTR promoter in the plasmid pBC12/HIV/SEAP. The TAT-coded activity is supplied by a second plasmid construct pBC12/CMV/t2. Transient co-transfection of COS-7 cells with these two plasmids leads to secretion of alkaline phosphatase into the culture medium which is analyzed by a simple colorimetric assay (Berger et al., Gene 66: 1-10, 1988). […]
In the SEAP assay, an inhibitor should cause reduction of SEAP reporter gene expression via transactivation of the HIV-1 LTR promoter by TAT protein (TAT-TRS). […] SEAP is detected colorimetrically by the para-nitrophenyl phosphate substrate at 405 nm. […] The cells are analyzed by the MTT assay to compare cytotoxicity to SEAP inhibition. […]
COS-7 (green monkey kidney) cells were co-transfected using Fugene 6 reagent (Roche Applied Science, Cat. No. 11815091001, Indianapolis, Ind., USA) with two plasmids: pHIVSEAP (SEAP expression vector under the control of the HIV LTR promoter) and pCTAT (HIV TAT transcription factor expression vector under the control of a CMV (cytomegalovirus) promoter). After test compound treatment for 48 hours, samples were analyzed for […] at 405 nm after addition of the p-nitrophenyl phosphate substrate. The percentage of SEAP activity inhibition was calculated in relation to the placebo control.

The next assay relates to survivin. In words: ELISA survivin assay (cell lysates). The assay is classed as cell-based, Human. The settings on record: read-out: Survivin IC50; survivin protein in cell lysates, normalized to total protein. From the text:
Survivin is an inhibitor of apoptosis that is abundantly expressed in many human cancers, but not in normal adult human tissue, and is considered a possible modulator of the terminal effector phase of cell death/survival. Survivin is expressed in G2-M in a cell cycle-dependent manner, binding directly to mitotic spindle microtubules. […] Phosphorylated survivin acts on the caspase pathway to suppress the formation of caspase-3 and caspase-9, thereby inhibiting apoptosis. Thus, compounds that reduce the expression of survivin will be expected to increase the rate of apoptosis and cell death.
Effects of the tested compounds on survivin were studied following manufacturer's instructions using the Surveyor™ IC Human Total Survivin Immunoassay, Catalog No. SUV647 (R&D Systems, Inc.). Cell lysates were analyzed for survivin protein content. The kit includes a plate coated with an antibody specific for survivin and a biotinylated antibody reagent that recognizes survivin bound to the plate. The plate is read on a plate reader set at 450 nm and corrected at 540 nm. A protein assay according to the Bradford method (Bradford, M. 1976, Anal Biochem 72: 248-254) was used to quantify and normalize the samples according to total protein content. Results from a standard curve enable the user to quantify the amount of survivin protein in each sample.

Values joined by “and” are separate entries in the source; they are usually repeats but may differ in a detail not shown here. Equal values may be shown once. Where a name gives a salt, the structure may show the parent alone. Read-outs that look alike come from different tables or passages of the source.

For `C[C@H](Cc1ccc(OCCCN2CCCCC2)c(OCCCN2CCCCC2)c1)[C@@H](C)Cc1ccc(OCCCN2CCCCC2)c(OCCCN2CCCCC2)c1.Cl.Cl.Cl.Cl` [Compound B, 1,4-bis{3,4-bis[3-(piperidin-1-yl)propoxy]phenyl}-2,3-dimethyl-(2R,3S)-butane tetrakis-hydrochloride salt], the DNA fragmentation entry in assay [1] is on record as “Negative”. For the same molecule, the IC50 in the assay with VEGF (VEGF released into media by DFO-treated cells, normalized to cell count; read-out: VEGF IC50) was ~2 µM and 2 µM; with MCP-1 (TNF-α-treated PHK; read-out: MCP-1 IC50) it was 2 µM; in assay [2] (MTS assay) it was 1 to 5 µM.
As for `C[C@H](Cc1ccc(OCCO)c(OCCO)c1)[C@@H](C)Cc1ccc(OCCO)c(OCCO)c1` [Compound I, 1,4-bis{3,4-bis(2-hydroxyethoxy)phenyl}-2,3-dimethyl-(2R,3S)-butane], the IC50 with A549 (lung carcinoma) is 65 to 70 µM; in the assay with MCP-1 (read-out: MCP-1 IC50; TNF-α-treated PHK) it was 25 µM; in assay [2] (Homo sapiens, HeLa), 20 to 30 µM. In addition, the EC50 in assay [3] is 60 to 80 µM.
With `C[C@H](Cc1ccc(OCCCCN2CCN(C)CC2)c(OCCCCN2CCN(C)CC2)c1)[C@@H](C)Cc1ccc(OCCCCN2CCN(C)CC2)c(OCCCCN2CCN(C)CC2)c1` [Compound O, 1,4-bis{3,4-bis[4-(N-methyl-piperazino-N′-yl)butoxyl]phenyl}-2,3-dimethyl-(2R,3S)-butane octa-hydrochloride], the DNA fragmentation result in assay [1] is “Positive”. The IC50 with survivin was 14 µM; in the assay with A549 (lung carcinoma), 8 to 9 µM; in the assay with VEGF (read-out: VEGF IC50; VEGF released into media by DFO-treated cells, normalized to cell count), 18 µM; in assay [2] (Homo sapiens, HeLa) it was 10 to 30 µM.
